Measurements published in patent EP0497091A1, “Bridged cyclic ketal derivatives” (GLAXO GROUP LIMITED, priority 1991, dated 1992).
pIC50: −log10 of the molar value.

Molecular target: T1, squalene synthase (Rattus norvegicus, UniProt Q02769)
T1 construct: from tissue; host or cells: rat liver homogenate
T1 sequence (Q02769 1-416): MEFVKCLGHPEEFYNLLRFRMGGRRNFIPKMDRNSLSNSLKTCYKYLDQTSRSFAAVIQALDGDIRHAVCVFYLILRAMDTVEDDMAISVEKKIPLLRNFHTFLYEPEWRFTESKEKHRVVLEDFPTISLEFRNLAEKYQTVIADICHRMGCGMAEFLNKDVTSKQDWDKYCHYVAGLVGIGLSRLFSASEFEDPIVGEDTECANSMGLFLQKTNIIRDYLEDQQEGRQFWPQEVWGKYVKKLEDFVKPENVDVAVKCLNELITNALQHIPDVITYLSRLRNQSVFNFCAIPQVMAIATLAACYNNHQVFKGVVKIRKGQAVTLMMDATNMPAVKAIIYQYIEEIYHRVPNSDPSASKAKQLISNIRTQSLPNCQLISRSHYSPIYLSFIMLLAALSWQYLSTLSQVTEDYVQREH
Test: Inhibition of squalene synthase ([14C]squalene production from [2-14C]farnesylpyrophosphate)
Assay type: biochemical
Details: not given
Description: A. Biller et al. in J. […] [¹⁴C]squalene is separated from unreacted substrate on thin layer chromatography plates and determined by liquid scintillation counting. […] Acta, Volume 877, 50-60 (1986) and modified to include measurement of cholesterol by high performance liquid chromatography (h.p.l.c.). […] A. […] [¹⁴C] Squalene was separated from unreacted substrate on thin layer chromatography plates and determined by liquid scintillation counting. Inhibition of squalene synthase was quantified by incubating rat liver homogenate with various concentrations of the test compound in the presence of [2-¹⁴C] farnesylpyrophosphate. The concentration of compound giving 50% inhibition of [¹⁴C] squalene production in a 30 minute assay was taken as the IC₅₀ value.

| Structure (SMILES) | pIC50 |
| --- | --- |
| CCC(C)CC(C)CCC(=O)OC1C(O)C2(CCC(C)C(=O)CCc3ccccc3)OC(C(=O)O)C(O)(C(=O)O)C1(C(=O)O)O2 (stereo not drawn) [Example 21, [1S-[1α[3R*(S*)],3α,4β,5α,6α(4S*,6R*),7β]] 1-(3-Methyl-4-oxo-6-phenylhexyl)-4,6,7-trihydroxy-2,8-dioxabicyclo[3.2.1]octane-3,4,5-tricarboxylic acid, 6-(4,6-dimethyloctanoate)] | > 7.00 |
| C=C(CC[C@]12O[C@H](C(=O)O)[C@@](O)(C(=O)O)[C@](C(=O)O)(O1)[C@H](OC(=O)OC)[C@H]2O)[C@@H](OC(C)=O)[C@H](C)Cc1ccccc1 (relative stereo) [Example 56, [1S-[1α(4R*,5S*),3α,4β,5α,6α,7β]] 1-(4-Acetyloxy-5-methyl-3-methylene-6-phenylhexyl)-4,7-dihydroxy-6-[(methoxycarbonyl)oxy]-2,8-dioxabicyclo[3.2.1]octane-3,4,5-tricarboxylic acid] | > 7.00 |
| C=C(CC[C@]12O[C@H](C(=O)O)[C@@](O)(C(=O)O)[C@](C(=O)O)(O1)[C@H](OC(=O)/C=C/c1ccccc1)[C@H]2O)[C@@H](OC(C)=O)[C@H](C)Cc1ccccc1 (relative stereo) [Example 49, [1S-[1α(4R*,5S*),3α,4β,5α,6α(2E),7β]] 1-(4-Acetyloxy-5-methyl-3-methylene-6-phenylhexyl)-4,6,7-trihydroxy-2,8-dioxabicyclo[3.2.1]octane-3,4,5-tricarboxylic acid, 6-(3-phenyl-2-propenoate)] | > 7.00 |
| C=C(CCC12OC(C(=O)O)C(O)(C(=O)O)C(C(=O)O)(O1)C(OC(=O)C=CC(C)CC(C)CC)C2OC(=O)OC)C(OC(C)=O)C(C)Cc1ccccc1 (stereo not drawn) [Example 26, [1S-[1α(4R*,5S*),3α,4β,5α,6α(2E,4R*,6R*),7β]] 1-(4-Acetyloxy-5-methyl-3-methylene-6-phenylhexyl)-4,6-dihydroxy-7-[(methoxycarbonyl)oxy]-2,8-dioxabicyclo[3.2.1]octane-3,4,5-tricarboxylic acid, 6-(4,6-dimethyl-2-octenoate)] | > 7.00 |
| C=C(CC[C@]12O[C@H](C(=O)O)[C@@](O)(C(=O)O)[C@](C(=O)O)(O1)[C@H](OC(=O)/C=C/[C@@H](C)C[C@@H](C)CC)[C@H]2O)C(=O)[C@H](C)Cc1ccccc1 [Example 3, [1S-[1α(5S^*),3α,4β,5α,6α(2E,4R^*,6R^*),7β]] 1-(5-Methyl-3-methylene-4-oxo-6-phenylhexyl)-4,6,7-trihydroxy-2,8-dioxabicyclo[3.2.1]octane-3,4,5-tricarboxylic acid, 6-(4,6-dimethyl-2-octenoate)] | > 7.00 |
| C=C(CC[C@]12O[C@H](C(=O)O)[C@@](O)(C(=O)O)[C@](C(=O)O)(O1)[C@H](OC(=O)NCC)[C@H]2O)[C@@H](OC(C)=O)[C@H](C)Cc1ccccc1 (relative stereo) [Example 66, [1S-[1α(4R*,5S*),3α,4β,5α,6α,7β]] 1-(4-Acetyloxy-5-methyl-3-methylene-6-phenylhexyl)-6-[[(ethylamino)carbonyl]oxy]4,7-dihydroxy-2,8-dioxabicyclo[3.2.1]octane-3,4,5-tricarboxylic acid] | > 7.00 |
| CCC(C)CC(C)CCC(=O)OC1C(O)C2(CCC(=O)C(O)C(C)Cc3ccccc3)OC(C(=O)O)C(O)(C(=O)O)C1(C(=O)O)O2 (stereo not drawn) [Example 17, [1S-[1α(4R*,5S*),3α,4β,5α,6α(4S*,6R*),7β]] 1-(4-Hydroxy-5-methyl-3-oxo-6-phenylhexyl)-4,6,7-trihydroxy-2,8-dioxobicyclo[3.2.1]octane-3,4,5-tricarboxylic acid, 6-(4,6-dimethyloctanoate)] | > 7.00 |
| CC[C@H](C)C[C@H](C)/C=C/C(=O)O[C@@H]1[C@@H](O)[C@@]2(C/C=C(\C)[C@@H](O)[C@H](C)Cc3ccccc3)O[C@H](C(=O)O)[C@@](O)(C(=O)O)[C@]1(C(=O)O)O2 (relative stereo) [Example 5, [1S-[1α[(E),4R*,5S*],3α,4β,5α,6α(2E,4R*,6R*),7β]] 1-(4-Hydroxy-3,5-dimethyl-6-phenyl-2-hexenyl)-4,6,7-trihydroxy-2,8-dioxabicyclo[3.2.1]octane-3,4,5-tricarboxylic acid, 6-(4,6-dimethyl-2-octenoate)] | > 7.00 |
| C=C(CCC12OC(C(=O)O)C(O)(C(=O)O)C(C(=O)O)(O1)C(OC(C)=O)C2O)C(OC(C)=O)C(C)Cc1ccccc1 (stereo not drawn) [Compound 1 in Example 28, [1S-[1α(4R*,5S*),3α,4β,5α,6α,7β]] 1-(4-Acetyloxy-5-methyl-3-methylene-6-phenylhexyl)-4,6,7-trihydroxy-2,8-dioxabicyclo[3.2.1]octane-3,4,5-tricarboxylic acid, 6-acetate] | > 7.00 |
| CC[C@H](C)C[C@H](C)CCC(=O)O[C@@H]1[C@@H](O)[C@@]2(C/C=C(\C)[C@@H](O)[C@H](C)Cc3ccccc3)O[C@H](C(=O)O)[C@@](O)(C(=O)O)[C@]1(C(=O)O)O2 (relative stereo) [Example 14, [1S-[1α[(E),4R*,5S*],3α,4β,5α,6α(4S*,6R*),7β]] 1-(3,5-Dimethyl-4-hydroxy-6-phenyl-2-hexenyl)-4,6,7-trihydroxy-2,8-dioxabicyclo[3.2.1]octane-3,4,5-tricarboxylic acid, 6-(4,6-dimethyloctanoate)] | > 7.00 |
| CCC(CC[C@]12O[C@H](C(=O)O)[C@@](O)(C(=O)O)[C@](C(=O)O)(O1)[C@H](OC(=O)/C=C/[C@@H](C)C[C@@H](C)CC)[C@H]2O)C(=O)[C@H](C)Cc1ccccc1 (relative stereo) [Example 10, [1S-[1α(3R*S*,5S*),3α,4β,5α,6α(2E,4R*,6R*),7β]] 1-(3-Ethyl-5-methyl-4-oxo-6-phenylhexyl)-4,6,7-trihydroxy-2,8-dioxabicyclo[3.2.1]octane-3,4,5-tricarboxylic acid, 6-(4,6-dimethyl-2-octenoate)] | > 7.00 |
| C=C(CC[C@]12O[C@H](C(=O)O)[C@@](O)(C(=O)O)[C@](C(=O)O)(O1)[C@H](OC(=O)c1ccccc1)[C@H]2O)[C@@H](OC(C)=O)[C@H](C)Cc1ccccc1 (relative stereo) [Example 47, [1S-[4α(4R*,5S*),3α,4β,5α,6α,7β]] 1-(4-Acetyloxy-5-methyl-3-methylene-6-phenylhexyl)-4,6,7-trihydroxy-2,8-dioxabicyclo[3.2.1]octane-3,4,5-tricarboxylic acid, 6-benzoate] | > 7.00 |
| CCC(C)CC(C)CCC(=O)OC1C(O)C2(CCCC(=O)CCc3ccccc3)OC(C(=O)O)C(O)(C(=O)O)C1(C(=O)O)O2 (stereo not drawn) [Example 19, [1S-[1α,3α,4β,5α,6α(4S*,6R*),7β]] 1-(4-Oxo-6-phenylhexyl)-4,6,7-trihydroxy-2,8-dioxabicyclo[3.2.1]octane-3,4,5-tricarboxylic acid, 6-(4,6-dimethyloctanoate)] | > 7.00 |

Same assay, conditions: rat liver homogenate; [2-¹⁴C] farnesylpyrophosphate as substrate; 50% inhibition of [¹⁴C] squalene production in a 30 minute assay; read-out: IC₅₀

| Structure (SMILES) | pIC50 |
| --- | --- |
| CCC(C)CC(C)/C=C/C(=O)OC1C(O)C2(CCC(C)C(=O)C(C)Cc3ccccc3)OC(C(=O)O)C(O)(C(=O)O)C1(C(=O)O)O2 (single isomer, unassigned) [Example 6, [1S-[1α[3R*(S*),5S*],3α,4β,5α,6α(2E,4R*,6R*),7β]] 1-(3,5-Dimethyl-4-oxo-6-phenylhexyl)-4,6,7-trihydroxy-2,8-dioxabicyclo[3.2.1]octane-3,4,5-tricarboxylic acid, 6-(4,6-dimethyl-2-octenoate), isomer 1 and isomer 2] | > 7.00 |
| COC(=O)OC1C(O)C2(CCC(C)C(OC(C)=O)C(C)Cc3ccccc3)OC(C(=O)O)C(O)(C(=O)O)C1(C(=O)O)O2 (stereo not drawn) [Compound (I) in Example 65, [1S-[1α(3R*S*,4S*,5S*),3α,4β,5α,6α,7β]] 1-(4-Acetyloxy-3,5-dimethyl-6-phenylhexyl)-4,7-dihydroxy-6-[[(methoxycarbonyl]oxy]-2,8-dioxabicyclo[3.2.1]octane-3,4,5-tricarboxylic acid] | > 7.00 |
| CCC(C)CC(C)C=CC(=O)OC1C(O)C2(CCC(C)C(O)C(C)Cc3ccccc3)OC(C(=O)O)C(O)(C(=O)O)C1(C(=O)O)O2 (single isomer, unassigned) [Example 7, [1S-[1α[3R*(S*),4R*,5S*],3α,4β,5α,6α(2E,4R*,6R*),7β]] and [1S-[1α[3R*(S*),4S*,5S*],3α,4β,5α,6α(2E,4R*,6R*),7β]] 1-(4-Hydroxy-3,5-dimethyl-6-phenylhexyl)-4,6,7-trihydroxy-2,8-dioxabicyclo[3.2.1]octane-3,4,5-tricarboxylic acid, 6-(4,6-dimethyl-2-octenoate), isomer 1 and isomer 2] | > 7.00 |
| CCC(C)CC(C)/C=C/C(=O)OC1C(O)C2(CCC(C)C(O)C(C)Cc3ccccc3)OC(C(=O)O)C(O)(C(=O)O)C1(C(=O)O)O2 (single isomer, unassigned) [Example 8, [1S-[1α[3R*(S*),4R*(S*),5S*],3α,4β,5α,6α(2E,4R*,6R*),7β]] 1-(4-Hydroxy-3,5-dimethyl-6-phenylhexyl)-4,6,7-trihydroxy-2,8-dioxabicyclo[3.2.1]octane-3,4,5-tricarboxylic acid, 6-(4,6-dimethyl-2-octenoate), isomer 3 and isomer 4] | > 7.00 |
